# Data: PMC11915372, “Identification of a Series Containing a Pentafluorophenyl Moiety That Targets Pks13 to Inhibit Growth of Mycobacterium tuberculosis” (ACS Infectious Diseases, 2025)
# Read-outs that look alike come from different tables or passages of the source.
# What was measured:
# [1] = format: in vitro ADME, human
# Procedure: Non-Chemistry supplementary methods
# Test compound (10 µM) was incubated with 0.5 mg/mL Human Liver Microsomes (Mixed Gender, Life Technologies) in 50 mM potassium phosphate buffer, pH7.4 in the presence of either NADPH (8mg/mL), glutathione or NADPH plus glutathione. Reactions are started by addition of 5 µL of 1 mM test compound (final concentration 10 µM, 1% solvent). Immediately, an aliquot (100 µL) of the incubation mixture was removed and mixed with acetonitrile (200 µL) to stop the reaction. A further 100 uL aliquot is removed at 90 minutes. After addition of 100 µL of water, the samples were centrifuged to sediment precipitated protein and the plates then sealed prior to analysis using a Xevo QTof Quadrupole Time-of-Flight Mass Spectrometer (Waters corporation, USA). Detection of metabolites is performed by analysis with MetabolynxXS and by manual data searching. Elemental composition of the parent ion and MS/MS analysis is used to determine the nature of the GSH adduct.
# Incubations with Clozapine were performed to provide a positive control.
# Met ID in human liver microsomes […]
# Analysis was performed on a Waters Acquity H-Class UHPLC system equipped with a photodiode array detector and Waters Xevo Q-ToF high resolution mass spectrometer. […] After the UV detector the mobile phase flow was analysed using the QToF mass spectrometer. […]
# [2] = system: iniBAC promoter (PiniB-LUX strain); format: cell-based, Mycobacterium tuberculosis
# [3] = system: M. tuberculosis (H37Rv); experiment: microbe, parasite or virus in culture; format: cell-based, Mycobacterium tuberculosis
# [4] = format: in vitro ADME, mouse; settings: for Mouse micro Cl: intrinsic clearance (Cli), CD1 mouse liver microsomes, Tables 1-4; for Microsomal Cli: supplement data table
# [5] = format: in vitro ADME, mouse; settings: for Mouse Heps Cl: intrinsic clearance (Cli), mouse hepatocytes, Tables 1-4; for Hepatocyte Cli: supplement data table
# [6] = system: HepG2 cells; experiment: HepG2 cytotoxicity
# Text: Assays to establish HepG2 cytotoxicity, in vitro microsomal/hepatocyte metabolic stability, aqueous kinetic solubility, and in vivo pharmacokinetic profiles were all performed as previously described.[15],[35]−[37]
# [7] = system: MmpL3, DprE1, InhA, FadD32, Kas A hypomorph strains; format: cell-based, Mycobacterium tuberculosis
# [8] = physchem; format: physicochemical
# [9] = system: Pks13 hypomorph strain; format: cell-based, Mycobacterium tuberculosis
# [10] = pH 7.4
# [11] = kinetic solubility in water, read-out: Kin. Sol
molecule,measurement,setting,value
"CN(C)c1ncnc2sc(-c3c(F)c(F)c(F)c(F)c3F)nc12.Cl [Compound 1, CN(C)c1ncnc2sc(nc12)-c1c(c(c(c(c1F)F)F)F)F]",formation of the GSH adduct,[1],clear evidence of a significant peak corresponding to the formation of the GSH adduct
same,PiniB-LUX luminescent signal,[2],strong luminescent signal
same,MIC,"[3]; Mycobacterium tuberculosis, H37RV, read-out: H37Rv MIC A",0.12 µM
same,MIC,"[3]; Mycobacterium tuberculosis, H37RV, read-out: H37Rv MIC B",0.61 µM
same,MIC,"[3]; Mycobacterium tuberculosis, H37RV, read-out: Wk2_7H9/DPPC/ casitone/ Tyloxapol MIC",0.124 µM
same,MIC,"[3]; Mycobacterium tuberculosis, H37RV, read-out: Wk2_ 7H9/DPPC/ cholesterol/BSA/ Tyloxapol MIC",0.6 µM
same,MIC,"[3]; Mycobacterium tuberculosis, H37RV, read-out: Wk2_7H9/glucose/ BSA/Tyloxapol MIC",0.5 µM
same,MIC,"[3]; Mycobacterium tuberculosis, H37RV, read-out: Wk2_7H9/glucose/ casitone/ Tyloxapol MIC",0.1 µM
same,Mouse micro Cl,[4],>50 mLmin/g
same,Microsomal Cli,[4],>50 mL/min/g
same,Mouse Heps Cl,[5],>50 mLmin/g
same,Hepatocyte Cli,[5],>50 mL/min/g
same,IC50,"[6]; Homo sapiens, HepG2, read-out: HepG2 inhibitory concentration (IC50)",> 100 µM
same,"change in potency on partial depletion of InhA, FadD32 or Kas A",[7],did not increase in potency
same,inhibition of MmpL3 or DprE1 suggested by hypomorph strains,[7],not inhibiting MmpL3 or DprE1
same,solubility kinetic,[8]; [11],1.9 µM
same,solubility kinetic,"[8]; pH 7.4, aqueous buffer, kinetic from dmso stock, pH7.4, read-out: Kinetic Solubility pH7.4",1.9 µM
same,shift in IC50 between the ± atc conditions,[9],~10 fold
COC(=O)c1nn(c(c1NC(=O)c1c(c(c(c(c1F)F)F)F)F)C)C [Compound 20],CHI LogD,[10],2.0
same,MIC,[3]; read-out: H37Rv MIC A,>50 µM
same,MIC,[3]; read-out: H37Rv MIC B,>50 µM
same,MIC,[3]; read-out: Wk2_7H9/DPPC/ casitone/ Tyloxapol MIC,>50 µM
same,MIC,[3]; read-out: Wk2_ 7H9/DPPC/ cholesterol/BSA/ Tyloxapol MIC,>50 µM
same,MIC,[3]; read-out: Wk2_7H9/glucose/ BSA/Tyloxapol MIC,>50 µM
same,MIC,[3]; read-out: Wk2_7H9/glucose/ casitone/ Tyloxapol MIC,>50 µM
same,Mouse micro Cl,[4],1.4 mLmin/g
same,Microsomal Cli,[4],1.4 mL/min/g
same,Mouse Heps Cl,[5],15.2 mLmin/g
same,Hepatocyte Cli,[5],15 mL/min/g
same,IC50,"[6]; read-out: HepG2 inhibitory concentration (IC50), growth of HepG2 cells",> 100 µM
same,solubility kinetic,[8]; [11],229 µM
same,solubility kinetic,"[8]; pH 7.4, read-out: Kinetic Solubility pH7.4",229 µM
